Counter-ions that a name gives are not always drawn. Like-named read-outs stand apart in the source and are kept apart here.

Assay type in all cases: in vivo, Danio rerio
In assay [1] the test system is 3-dpf Zebrafish Embryos Challenged with LPS (P. aeruginosa 60 μg/mL). Conditions: P. aeruginosa LPS 60 μg/mL, compound 10 μM; for 3 dpf Embryos Percent Rescue (Mort + Tail Edema): initial 3-dpf screen shown for reference; for Percent Rescue (Mort + Tail Edema): 3-dpf embryos, n=16; for Percent Rescue (Mort + Tail Edema) / rescue of tail edema and mortality (sepsis rescue rate) at 3-dpf: 24 hours. The protocol:
Healthy, normally developing embryos collected from the adult AB zebrafish spawning events were treated with 75 μM of 1-phenyl 2-thiourea (PTU) in EM prior to 24 hours post fertilization (hpf) to block pigmentation formation (Karlsson et al, 2001). These embryos were then placed into an incubator at 28.5° C. until they reached 3-dpf. Embryos were then removed from the incubator and plated individually into the wells of 96 well plates containing 50 μL of EM.
A super stock of 120 μg/mL of P. aeruginosa LPS was made up in EM in a glass container. This stock was then used to make sub stocks of 120 μg/mL P. aeruginosa LPS (positive control) and 120 μg/mL P. aeruginosa LPS containing 20 μM of test drug in glass scintillation vials. Immediately after the sub stocks were made, the wells were dosed with either 50 μL of 120 μg/mL of P. aeruginosa, 120 μg/mL of P. aeruginosa with 20 μM of test drug, or EM (1:1 Dilution). Each 96 well plate had one LPS positive control (n=16), 4 different test drugs with P. aeruginosa LPS (n=16 per drug), and one negative control (n=16). Once the plates were dosed, they were covered with parafilm and placed into an incubator at 28.5° C. The plates were removed at 6- and 24-hours post exposure to be scored for tail edema and mortality. All 644 drugs evaluated for rescue from mortality and tail edema induced by P. aeruginosa LPS exposure as compared to LPS-treated controls after 24 hours of exposure.
3-dpf embryos were challenged with 60 μg/mL P. aeruginosa LPS in combination with single 10 μM concentration of each compound for 24 hours (n=16 fish per compound). […] Other 29 compounds exceeded 60% rescue of tail edema and mortality at 24 hours post exposure.

The subject of assay [2] is 5-dpf zebrafish larvae challenged with P. aeruginosa LPS 60 μg/mL. To be noted: compound 10 μM; for 5 dpf Embryos Percent Rescue (Mort + Tail Edema): 5-dpf larvae. The source says:
Confirmatory testing followed the same methods as the initial testing but used 5-dpf larvae instead of the 3-dpf larvae that were used for the initial screening because they were easier to handle and replicated the methods of Philip et al. (2017).
Next, follow-on 5-dpf screening was implemented to confirm initial screening with more larvae. Zebrafish swim faster at 5-dpf (requiring more time to load 96 plates), and all major organ systems are functioning at 5-dpf and thus determined as advantageous for follow-on confirmation.

The subject of assay [3] is larval zebrafish exposed to Pseudomonas aeruginosa 60 μg/mL lipopolysaccharide (LPS). Put plainly: Zebrafish endotoxicity/sepsis model drug screening, statements without larval stage. Conditions: for rescue from mortality / rescue from vascular damage (tail edema): zebrafish endotoxemia model. The source says: To identify potential sepsis drug candidates, an optimized larval zebrafish model of endotoxicity/sepsis was used to screen commercial libraries of U.S. Food and Drug Administration (FDA)-approved drugs and other active pharmaceutical ingredients (API) known to affect pathways implicated in the initiation and progression of sepsis in humans (i.e., inflammation, mitochondrial dysfunction, coagulation, and apoptosis). In this model, endotoxicity was induced in 3- and 5-day post fertilization larval zebrafish (characterized by mortality and tail fin edema (vascular leakage)) by immersion exposure to Pseudomonas aeruginosa 60 μg/mL lipopolysaccharide (LPS) for 24 hours, then screened for the rescue potential of 644 selected drugs simultaneously with LPS at 10 μM. After LPS exposure, a neurobehavioral assay (light-dark test) was performed to further evaluate rescue from endotoxicity and to determine possible off-target drug side effects.

Assay [4] deals with zebrafish (4 dpf pre-treated, LPS exposure at 5-dpf) challenged with P. aeruginosa LPS 60 μg/mL. To be noted: for 24 hour Tail Edema, No-Drug Pretreatment / 24 Hour Mortality and Tail Edema, Drug Pretreatment / 24 Hour Mortality, Drug Pretreatment / 24 hour Tail Edema, Drug Pretreatment / 24 Hour Mortality and Tail Edema, No-Drug Pretreatment / 24 Hour Mortality, No Drug Pretreatment: number of n = 16 fish; for 24 hour Tail Edema, No-Drug Pretreatment: 10 μM drug with LPS 60 μg/mL; for 24 hour Tail Edema, No-Drug Pretreatment / 24 Hour Mortality and Tail Edema, No-Drug Pretreatment / 24 Hour Mortality, No Drug Pretreatment: no 24-hour pre-treatment; for 24 Hour Mortality and Tail Edema, Drug Pretreatment / 24 Hour Mortality, Drug Pretreatment: 24-hour 10 μM drug pre-treatment; for 24 hour Tail Edema, Drug Pretreatment: 24-hour 10 μM drug pre-treatment before LPS 60 μg/mL. As to the method:
Drugs identified with >80% rescue were subjected to additional testing. Drug pretreatment for 24 hours prior to LPS challenge was evaluated to determine if any prophylactic benefit could be realized with any of the top rescue drugs. The intent was to determine if drug pre-treatment might be used at the point of injury as a preventative therapeutic before the onset of infection and development of sepsis. Parallel groups of fish received a 24-hour drug pre-treatment or no drug pre-treatment prior to LPS challenge. For this test, 4 dpf PTU-treated zebrafish embryos were placed into 96 well plates containing 100 μL of EM. […] All plates were covered with parafilm and placed into an incubator at 28.5° C. for 24 hours. […] Once the plates were dosed, they were covered with parafilm and placed into an incubator at 28.5° C. The plates were removed at 6- and 24-hours post exposure and scored for tail edema and mortality. Once the 24-hour tail edema and mortality endpoints were collected, a neurobehavioral test was conducted as described in section 2.8.

Regarding `O=C(O)c1cn(C2CC2)c2cc(N3CCNCC3)c(F)cc2c1=O` [Compound 34, Ciprofloxacin (hydrochloride monohydrate)], the “3 dpf Embryos Percent Rescue (Mort + Tail Edema)” value (“3 dpf Embryos Percent Rescue” below) in assay [1] stood at 13%. In assay [2], the “5 dpf Embryos Percent Rescue (Mort + Tail Edema)” value (shortened to “5 dpf Embryos Percent Rescue”) is recorded as 6%. In assay [3], the rescue from mortality result is on record as “provided rescue from mortality” and the “rescue from vascular damage (tail edema)” value was “did not elicit rescue from vascular damage”.

`CC(C)NNC(=O)c1ccncc1` [Compound 322, Iproniazid]: in assay [1], the “Percent Rescue (Mort + Tail Edema)” value is listed as 63%; the “rescue of tail edema and mortality (sepsis rescue rate) at 3-dpf” value (“rescue … at 3-dpf” for short) is listed as 63%; the “3 dpf Embryos Percent Rescue” value came out at 63%. Further, in assay [2], the “5 dpf Embryos Percent Rescue” value is 81%; the “rescue of tail edema and mortality (sepsis rescue rate) at 5-dpf” value (“rescue … at 5-dpf” below) stood at 81%. In assay [4], the “24 hour Tail Edema, No-Drug Pretreatment” value stood at 1 fish; the “24 Hour Mortality and Tail Edema, Drug Pretreatment” value was found to be 16 fish; the “24 Hour Mortality, Drug Pretreatment” value is given as 16 fish; the “24 hour Tail Edema, Drug Pretreatment” value was determined as 0 fish. For the same molecule, in assay [4], the “24 Hour Mortality and Tail Edema, No-Drug Pretreatment” value is given as 16 fish; the “24 Hour Mortality, No Drug Pretreatment” value is listed as 15 fish.

In the case of `CN1c2c(nc(N)[nH]c2=O)NC[C@@H]1CNc1ccc(C(=O)N[C@@H](CCC(=O)O)C(=O)O)cc1` [Compound 344, Levomefolic acid], in assay [1], the “Percent Rescue (Mort + Tail Edema)” value was determined as 63%; the “rescue … at 3-dpf” value is listed as 63%; the “3 dpf Embryos Percent Rescue” value amounted to 63%. Besides, in assay [2], the “5 dpf Embryos Percent Rescue” value was 88%; the “rescue … at 5-dpf” value was found to be 88%. In assay [4], the “24 hour Tail Edema, No-Drug Pretreatment” value is given as 1 fish; the “24 Hour Mortality and Tail Edema, Drug Pretreatment” value was determined as 16 fish; the “24 Hour Mortality, Drug Pretreatment” value stood at 16 fish; the “24 hour Tail Edema, Drug Pretreatment” value is recorded as 0 fish. For the same molecule, in assay [4], the “24 Hour Mortality and Tail Edema, No-Drug Pretreatment” value worked out at 16 fish; the “24 Hour Mortality, No Drug Pretreatment” value turned out to be 15 fish.

With `O=C1Cc2cc(CCN3CCN(c4nsc5ccccc45)CC3)c(Cl)cc2N1` [Compound 361, Ziprasidone], in assay [1], the “Percent Rescue (Mort + Tail Edema)” value came to 63%; the “rescue … at 3-dpf” value is recorded as 63%; the “3 dpf Embryos Percent Rescue” value was 63%. Besides, the “rescue … at 3-dpf” value in assay [1] (listed as Ziprasidone) is given as 63%. In addition, the “5 dpf Embryos Percent Rescue” value in assay [2] was found to be 100%. The “Pre-Treatment Rescue (n = 16)” value in assay [4] (24-hour drug pre-treatment, P. aeruginosa LPS 60 μg/mL) amounted to 75%. In assay [4] (no 24-hour drug pre-treatment, P. aeruginosa LPS 60 μg/mL), the “No Pre-Treatment Rescue (n = 16)” value turned out to be 56%. For the same molecule, in assay [4] (listed as Ziprasidone), the “24 hour Tail Edema, Drug Pretreatment” value is listed as 4 fish; the “24 Hour Mortality and Tail Edema, Drug Pretreatment” value was 10 fish; the “24 Hour Mortality, Drug Pretreatment” value is recorded as 6 fish; the “24 Hour Mortality and Tail Edema, No-Drug Pretreatment” value is 10 fish. In assay [4] (listed as Ziprasidone), the “24 Hour Mortality, No Drug Pretreatment” value turned out to be 8 fish.

For the molecule `Cc1ccc(Sc2ccccc2N2CCNCC2)c(C)c1` [Compound 376, Vortioxetine], in assay [1], the “Percent Rescue (Mort + Tail Edema)” value stood at 63%; the “rescue … at 3-dpf” value came out at 63%; the “3 dpf Embryos Percent Rescue” value is given as 63%. Further, in assay [2], the “5 dpf Embryos Percent Rescue” value was 88%; the “rescue … at 5-dpf” value was determined as 88%. Besides, in assay [4], the “24 hour Tail Edema, No-Drug Pretreatment” value is given as 0 fish; the “24 Hour Mortality and Tail Edema, Drug Pretreatment” value worked out at 16 fish; the “24 Hour Mortality, Drug Pretreatment” value is 16 fish; the “24 hour Tail Edema, Drug Pretreatment” value is 0 fish. In addition, in assay [4], the “24 Hour Mortality and Tail Edema, No-Drug Pretreatment” value was 16 fish; the “24 Hour Mortality, No Drug Pretreatment” value was 16 fish.

As to `CCCCCCCCCCCCCCCC(=O)OC1CCCn2c1nc(C)c(CCN1CCC(c3noc4cc(F)ccc34)CC1)c2=O` (centres unmarked) [Compound 429, Paliperidone palmitate], in assay [1], the “Percent Rescue (Mort + Tail Edema)” value is listed as 94%; the “rescue … at 3-dpf” value turned out to be 94%; the “3 dpf Embryos Percent Rescue” value was determined as 94%. In addition, in assay [2], the “5 dpf Embryos Percent Rescue” value amounted to 100%; the “rescue … at 5-dpf” value was found to be 100%. In assay [4], the “24 hour Tail Edema, No-Drug Pretreatment” value is given as 3 fish; the “24 Hour Mortality and Tail Edema, Drug Pretreatment” value was 12 fish; the “24 Hour Mortality, Drug Pretreatment” value was found to be 10 fish; the “24 hour Tail Edema, Drug Pretreatment” value is given as 2 fish. In addition, in assay [4], the “24 Hour Mortality and Tail Edema, No-Drug Pretreatment” value worked out at 9 fish; the “24 Hour Mortality, No Drug Pretreatment” value is 6 fish.

Regarding `Clc1ccc(CCCOCCCN2CCCCC2)cc1` [Compound 435, Pitolisant], in assay [1], the “Percent Rescue (Mort + Tail Edema)” value stood at 94%; the “rescue … at 3-dpf” value amounted to 94%; the “3 dpf Embryos Percent Rescue” value was 94%. In assay [2], the “5 dpf Embryos Percent Rescue” value is listed as 88%; the “rescue … at 5-dpf” value is recorded as 88%. Further, in assay [4], the “24 hour Tail Edema, No-Drug Pretreatment” value amounted to 2 fish; the “24 Hour Mortality and Tail Edema, Drug Pretreatment” value is 16 fish; the “24 Hour Mortality, Drug Pretreatment” value came to 16 fish; the “24 hour Tail Edema, Drug Pretreatment” value amounted to 0 fish. In assay [4], the “24 Hour Mortality and Tail Edema, No-Drug Pretreatment” value is 15 fish; the “24 Hour Mortality, No Drug Pretreatment” value came out at 13 fish.

Take `O=C(c1ccc(F)cc1)C1CCN(CCn2c(=O)[nH]c3ccccc3c2=O)CC1` [Compound 437, Ketanserin (tartrate)]: in assay [1], the “Percent Rescue (Mort + Tail Edema)” value is reported as 100%; the “rescue … at 3-dpf” value stood at 100%; the “3 dpf Embryos Percent Rescue” value came out at 100%. Moreover, in assay [2], the “5 dpf Embryos Percent Rescue” value came out at 100%; the “rescue … at 5-dpf” value is recorded as 100%. Also, the “rescue … at 5-dpf” value in assay [2] (listed as ketanserin tartrate) is recorded as 100%. Further, in assay [4], the “24 hour Tail Edema, No-Drug Pretreatment” value was 0 fish; the “24 Hour Mortality and Tail Edema, Drug Pretreatment” value was 0 fish; the “24 Hour Mortality, Drug Pretreatment” value came out at 0 fish; the “24 hour Tail Edema, Drug Pretreatment” value was found to be 0 fish. Moreover, in assay [4], the “24 Hour Mortality and Tail Edema, No-Drug Pretreatment” value turned out to be 0 fish; the “24 Hour Mortality, No Drug Pretreatment” value came out at 0 fish.

On to `CN1C2CCCC1CC(NC(=O)c1nn(C)c3ccccc13)C2` (centres unmarked) [Granisetron], for which, in assay [3], the rescue from mortality entry is reported as “significant reduction in mortality” and the “rescue from vascular damage (tail edema)” value is “did not rescue from vascular damage (tail edema)”.

Turning to `Cc1nccn1CC1CCc2c(c3ccccc3n2C)C1=O` (centres unmarked) [Ondansetron], the “efficacy in the zebrafish endotoxicity sepsis model” value in assay [3] (in vivo) is “not efficacious”.

For the origin of these results see patent US20250085273A1, “NOVEL RAPID DRUG DISCOVERY FOR SEPSIS AND AGENTS FOR USE AS SEPSIS THERAPY” (priority 2023, published 2025).
